Experimental data reported in US11007194B2, “Method of treating a proliferative disease” (Array BioPharma Inc., priority 2011, dated 2021).

Tested on: Hmex1906 primary human melanoma tumors
Assay: Hmex1906 primary human melanoma xenograft in nude mice, emergence of resistance under continuous vs intermittent dosing
Format: in vivo
Conditions: 5 mg/kg bid
Procedure: Hmex1906 primary human melanoma tumors are implanted at passage 3 into nude mice. The mice were monitored until the implanted tumors reached 200-400 mm^3. Once this size is reached, the mice are dosed bid with 5 mg/kg of a Raf inhibitor (Compound of Formula II) for 4 weeks. Some of the mice continue treatment while others are subject to an intermittent treatment schedule of 4 weeks of treatment and 2 weeks of drug holiday.

## COC(=O)N[C@@H](C)CNc1nccc(-c2cn(C(C)C)nc2-c2cc(Cl)cc(NS(C)(=O)=O)c2F)n1 [Compound of Formula II]
Continuous dosing, nude mice with Hmex1906 tumors (200-400 mm^3 at start)
  emergence of resistance to the BRAF inhibitor: Resistance emerged in all mice
Intermittent schedule: 4 weeks of treatment and 2 weeks of drug holiday, nude mice with Hmex1906 tumors, 5 mg/kg
  emergence of resistance to the BRAF inhibitor: no evidence of resistance
Intermittent schedule: 4 weeks of treatment and 2 weeks of drug holiday, nude mice with Hmex1906 tumors, listed as BRAF inhibitor of formula II, 5 mg/kg
  emergence of resistance to the BRAF inhibitor: delays or prevents the onset of resistance
